Assay results as given in patent US6906205B2, “Spiro and dispiro 1,2,4-trioxolane antimalarials” (Medicines for Malaria Venture MMV, priority 2002, dated 2005).
≈ marks a conversion by molar mass, not a printed value.

Tests used:
[1] = test system: ANKA strain of P. berghei; assay: single dose STI in vivo screen in infected mice; design: species or system Plasmodium berghei; conditions: for Activity (%) po / Activity (%) sc / Activity (%) SSVpo: percent reduction in parasitemia day 3 post-infection, mice; for Activity (%) po / Survival (days) po: single 10 mg/kg po in 3% ethanol and 7% Tween 80; for Activity (%) sc / Survival (days) sc: single 10 mg/kg sc in 3% ethanol and 7% Tween 80; for Activity (%) SSVpo: single po dose in standard suspending vehicle (SSV); for Survival (days) po / Survival (days) sc / Survival (days) SSVpo: untreated control 5.6 ± 0.3; for Survival (days) SSVpo: single po dose in SSV
Procedure, shortened: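 Groups of 3-5 Moro SPF or NMRI mice infected with the ANKA strain of P. berghei received a single dose of trioxolane on day one post-infection. The compound was given in 3% ethanol and 7% Tween 80 or in SSV (0.5% w/v CMC, 0.5% v/v benzyl alcohol, 0.4% v/v Tween 80, 0.9% w/v sodium chloride in water). Antimalarial activity was scored as percent reduction in parasitemia on day three and as survival time versus untreated controls. Survival to day 30 counted as cure.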

[2] = test system: P. falciparum K1 strain (Thailand resistant to chloroquine); assay: semiautomated microdilution assay, [3H]-hypoxanthine incorporation, K1 strain; format: cell-based, Plasmodium falciparum; conditions: K1 strain, 72 h incubation
Procedure, shortened: (§1)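 IC50 values come from logit regression of semiautomated microdilution data obtained on intraerythrocytic parasites drawn from asynchronous cultures.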

[3] = test system: P. falciparum NF54 strain (sensitive to standard antimalarials); assay: semiautomated microdilution assay, [3H]-hypoxanthine incorporation, NF54 strain; format: cell-based, Plasmodium falciparum; conditions: NF54 strain, 72 h incubation
Procedure, shortened: as §1

Compound: C1C2CC3CC1CC(C2)C31OO[C@]2(CC[C@@H](CN(C[C@H]3CC[C@]4(CC3)OOC3(O4)C4CC5CC(C4)CC3C5)C3CC3)CC2)O1 (some centres unmarked) [OZ254]
- Activity (%) po [1]: 27%
- Activity (%) sc [1]: 2%
- Activity (%) SSVpo [1]: 11%
- Survival (days) po [1]: 6.0 days
- Survival (days) sc [1]: 5.7 days
- Survival (days) SSVpo [1]: 5.7 days
- IC50 (ng/ml) K1 [2]: > 100 ng/mL
- IC50 (ng/ml) NF54 [3]: 57 ng/mL (≈ 93.5 nM)

Compound: O=C(NC[C@H]1CC[C@]2(CC1)OOC1(O2)C2CC3CC(C2)CC1C3)c1ccncc1 (some centres unmarked) [OZ255]
- Activity (%) po [1]: 99.61%
- Activity (%) sc [1]: 99.92%
- Activity (%) SSVpo [1]: 99.54%
- Survival (days) po [1]: 9.0 days
- Survival (days) sc [1]: 10.0 days
- Survival (days) SSVpo [1]: 8.7 days
- IC50 (ng/ml) K1 [2]: 2.2 ng/mL (≈ 5.52 nM)
- IC50 (ng/ml) NF54 [3]: 1.1 ng/mL (≈ 2.76 nM)

Compound: CS(=O)(=O)NC[C@H]1CC[C@]2(CC1)OOC1(O2)C2CC3CC(C2)CC1C3 (some centres unmarked) [OZ257]
- Activity (%) po [1]: 99.00%
- Activity (%) sc [1]: 99.84%
- Activity (%) SSVpo [1]: 99.49%
- Survival (days) po [1]: 8.3 days
- Survival (days) sc [1]: 9.7 days
- Survival (days) SSVpo [1]: 7.7 days
- IC50 (ng/ml) K1 [2]: 42 ng/mL (≈ 113 nM)
- IC50 (ng/ml) NF54 [3]: 21 ng/mL (≈ 56.5 nM)

Compound: Clc1ccc2c(NCCNC3CCC4(CC3)OOC3(O4)C4CC5CC(C4)CC3C5)ccnc2c1 (centres unmarked) [OZ258]
- Activity (%) po [1]: 75%
- Activity (%) sc [1]: 99.95%
- Activity (%) SSVpo [1]: 70%
- Survival (days) po [1]: 6.0 days
- Survival (days) sc [1]: 10.7 days
- Survival (days) SSVpo [1]: 6.0 days
- IC50 (ng/ml) K1 [2]: 5.8 ng/mL (≈ 12 nM)
- IC50 (ng/ml) NF54 [3]: 5.2 ng/mL (≈ 10.7 nM)

Compound: CCOC(=O)CCC[C@H]1CC[C@]2(CC1)OOC1(O2)C2CC3CC(C2)CC1C3 (some centres unmarked) [OZ260]
- Activity (%) po [1]: 72%
- Activity (%) sc [1]: 81%
- Activity (%) SSVpo [1]: 51%
- Survival (days) po [1]: 6.7 days
- Survival (days) sc [1]: 7.7 days
- Survival (days) SSVpo [1]: 7.0 days
- IC50 (ng/ml) K1 [2]: 5.6 ng/mL (≈ 14.8 nM)
- IC50 (ng/ml) NF54 [3]: 4.3 ng/mL (≈ 11.4 nM)

Compound: O=C(O)CCC[C@H]1CC[C@]2(CC1)OOC1(O2)C2CC3CC(C2)CC1C3 (some centres unmarked) [OZ261]
- Activity (%) po [1]: 61%
- Activity (%) sc [1]: 92%
- Activity (%) SSVpo [1]: 47%
- Survival (days) po [1]: 7.0 days
- Survival (days) sc [1]: 8.0 days
- Survival (days) SSVpo [1]: 7.0 days
- IC50 (ng/ml) K1 [2]: 39 ng/mL (≈ 111 nM)
- IC50 (ng/ml) NF54 [3]: 18 ng/mL (≈ 51.4 nM)

Compound: CC(=O)NC[C@H]1CC[C@]2(CC1)OOC1(O2)C2CC3CC(C2)CC1C3 (some centres unmarked) [OZ262]
- Activity (%) po [1]: 96%
- Activity (%) sc [1]: 99.39%
- Activity (%) SSVpo [1]: 98%
- Survival (days) po [1]: 11.7 days
- Survival (days) sc [1]: 10.0 days
- Survival (days) SSVpo [1]: 12.3 days
- IC50 (ng/ml) K1 [2]: 0.63 ng/mL (≈ 1.88 nM)
- IC50 (ng/ml) NF54 [3]: 0.84 ng/mL (≈ 2.5 nM)

Compound: O=C(NC[C@H]1CC[C@]2(CC1)OOC1(O2)C2CC3CC(C2)CC1C3)c1c[nH]cn1 (some centres unmarked) [OZ263]
- Activity (%) po [1]: 99.53%
- Activity (%) sc [1]: 99.92%
- Activity (%) SSVpo [1]: 99.45%
- Survival (days) po [1]: 13.0 days
- Survival (days) sc [1]: 11.0 days
- Survival (days) SSVpo [1]: 13.3 days
- IC50 (ng/ml) K1 [2]: 0.84 ng/mL (≈ 2.17 nM)
- IC50 (ng/ml) NF54 [3]: 1.1 ng/mL (≈ 2.84 nM)

Compound: O=C(NC[C@H]1CC[C@]2(CC1)OOC1(O2)C2CC3CC(C2)CC1C3)c1cc[n+]([O-])cc1 (some centres unmarked) [OZ264]
- Activity (%) po [1]: 99.61%
- Activity (%) sc [1]: 99.97%
- Activity (%) SSVpo [1]: 99.92%
- Survival (days) po [1]: 11.0 days
- Survival (days) sc [1]: 13.7 days
- Survival (days) SSVpo [1]: 10.3 days
- IC50 (ng/ml) K1 [2]: 1.2 ng/mL (≈ 2.9 nM)
- IC50 (ng/ml) NF54 [3]: 1.5 ng/mL (≈ 3.62 nM)

Compound: NC(=O)NC[C@H]1CC[C@]2(CC1)OOC1(O2)C2CC3CC(C2)CC1C3 (some centres unmarked) [OZ265]
- Activity (%) po [1]: 99%
- Activity (%) sc [1]: 99.67%
- Activity (%) SSVpo [1]: 98%
- Survival (days) po [1]: 13.0 days
- Survival (days) sc [1]: 11.7 days
- Survival (days) SSVpo [1]: 9.7 days
- IC50 (ng/ml) K1 [2]: 0.56 ng/mL (≈ 1.66 nM)
- IC50 (ng/ml) NF54 [3]: 1.6 ng/mL (≈ 4.76 nM)

Compound: CN(C)C(=O)NC[C@H]1CC[C@]2(CC1)OOC1(O2)C2CC3CC(C2)CC1C3 (some centres unmarked) [OZ266]
- Activity (%) po [1]: 99%
- Activity (%) sc [1]: 99.75%
- Activity (%) SSVpo [1]: 99.39%
- Survival (days) po [1]: 13.7 days
- Survival (days) sc [1]: 11.7 days
- Survival (days) SSVpo [1]: 11.7 days
- IC50 (ng/ml) K1 [2]: 1.1 ng/mL (≈ 3.02 nM)
- IC50 (ng/ml) NF54 [3]: 1.5 ng/mL (≈ 4.12 nM)

Compound: CN1CCN(C(=O)NC[C@H]2CC[C@]3(CC2)OOC2(O3)C3CC4CC(C3)CC2C4)CC1 (some centres unmarked) [OZ267]
- Activity (%) po [1]: 99.92%
- Activity (%) sc [1]: 99.97%
- Activity (%) SSVpo [1]: 99.89%
- Survival (days) po [1]: 8.3 days
- Survival (days) sc [1]: 9.3 days
- Survival (days) SSVpo [1]: 8.7 days
- IC50 (ng/ml) K1 [2]: 0.20 ng/mL (≈ 0.477 nM)
- IC50 (ng/ml) NF54 [3]: 0.34 ng/mL (≈ 0.81 nM)

Compound: NC(=O)C(=O)NC[C@H]1CC[C@]2(CC1)OOC1(O2)C2CC3CC(C2)CC1C3 (some centres unmarked) [OZ268]
- Activity (%) po [1]: 99.86%
- Activity (%) sc [1]: 99.92%
- Activity (%) SSVpo [1]: 99.47%
- Survival (days) po [1]: 9.3 days
- Survival (days) sc [1]: 9.7 days
- Survival (days) SSVpo [1]: 13.3 days
- IC50 (ng/ml) K1 [2]: 0.44 ng/mL (≈ 1.21 nM)
- IC50 (ng/ml) NF54 [3]: 0.71 ng/mL (≈ 1.95 nM)
